# Experiments:
# [1] = tested on: THP1 macrophage-like cells; test: Secreted factor analysis (ELISA); assay type: cell-based, human
# Protocol: THP-1 human monocytes were obtained from the American Tissue Culture Collection (ATCC, Manassas, VA) and maintained in RPMI, 10% FBS, 1% penicillin/streptomycin, 2 mM L-glutamine, and 1 mM sodium pyruvate in a humidified atmosphere at 37° C. with 5% CO2. For experiments, 500,000 THP-1 cells/mL were plated with 320 nM phorbol 12-myristate 13-acetate (PMA) for 24 hours to induce differentiation into macrophages. Adherent macrophages were washed in PBS and placed in fresh media, followed by a 24 hour incubation to acquiesce. […] Once cells were prepared as described above, aspirin (200 µM, where appropriate) was added for 1 hour. Subsequently, UBM hydrogel (0.5 mg/mL) or pepsin control buffer (0.05 mg/mL) was added and cells were allowed to incubate for 24-72 hours. After incubation, cells were pelleted by centrifugation (700×g, 5 minutes, 4° C.), and the culture supernatants were carefully removed. Supernatants were stored at -80° C. until the time of assay. Secreted factor concentrations in the culture supernatants were determined using commercially available ELISA kits (PGE2, PGF2α, ENZO Life Sciences) and IL-1RA (R&D Systems)) according to the manufacturer's instructions.
# brain derived microglia = test: PGE2 secretion in primary microglia; assay type: cell-based, rat; details: UBM hydrogel 0.5 mg/mL 48 hours; inhibitor pre-treatment 1 hour
# Protocol: Primary microglia from rats were obtained from postnatal day 3 rat pup brains as previously described ([…], Xiao X, Hart RP, Schwartz M. Protective autoimmunity: interferon-gamma enables microglia to remove glutamate without evoking inflammatory mediators. J Neurochem 2005;92(5):997-1009). Whole brains from postnatal day 3 Sprague Dawley rat pups (Charles River) were harvested and minced after removal of the brain stem, olfactory bulbs, and meninges. Tissue was digested for 15 min in 0.25% trypsin/EDTA at 37° C. […] The suspension was centrifuged, diluted in culture media (DMEM/F12, 10% FBS, 2 mM L-glutamine, 1% penicillin/streptomycin), and grown to confluence at 37° C./5% CO2. Culture media was replaced every 2-3 days. At day 11-12 in vitro, enriched microglia were obtained by mechanical agitation (orbital shaker, 150 rpm, 37 C) for 2 hours. The media was collected after the shake-off step and centrifuged (1400 rpm for 5 minutes). The cell pellet was resuspended in culture media (RPMI 1640, 10% FBS, 1 mM L-glutamine, 1 mM sodium pyruvate, 50 μM beta-mercaptoethanol, 1% penicillin and streptomycin) and cells were plated at a density of 500,000/mL. […] Secreted factor concentrations in the culture supernatants were determined using commercially available ELISA kits (PGE2, PGF2α, ENZO Life Sciences) and IL-1RA (R&D Systems)) according to the manufacturer's instructions.
# C2C12 murine myoblasts = test: In vitro myogenesis, THP1/C2C12 transwell co-culture; assay type: cell-based
# Protocol: C2C12 murine myoblasts were obtained from ATCC and grown in complete media (DMEM, 10% FBS, 1% penicillin/streptomycin) at 37° C./5% CO2 according to the ATCC recommendations. Myoblasts were seeded at a density of 5,000 cells/cm^2 in 24 well plates and allowed proliferate to 90% confluence. Cells were then washed in 1×PBS and incubated in differentiation media (DMEM, 2% horse Serum, 1% penicillin/streptomycin) for 24 hours. Cells were washed in 1×PBS and placed in basal media (DMEM, 1% penicillin/streptomycin). A transwell insert (Corning) containing 100,000 differentiated THP1 cells (as described in section 2.9) in 200 μL of complete THP1 cell media was placed in each well. UBM hydrogel (0.5 mg/mL, final concentration) was then added to the THP1 transwell insert only. […] A standardized image capture system and quantitative analysis of in vitro myogenesis was performed as previously described (Goh […], Corbett J T, Pierre […], Pizza F X. Intercellular adhesion molecule-1 expression by skeletal muscle Cells Augments myogenesis. Exp Cell Res 2014). Briefly, custom macro functions (Image […]; Media Cybernetics Inc.) were used to objectively quantify several important myogenesis parameters (e.g., the number of nuclei, myotubes, and nuclei within a myotube). […] The fusion index was calculated by expressing the number of nuclei within myotubes as a percentage of total nuclei.
# [2] = Aspirin 200 μM with UBM hydrogel 0.5 mg/mL, 48 hours
smiles,measurement,setting,value
CC(=O)Oc1ccccc1C(=O)O [Aspirin],IL-1RA secretion,[1]; [2],did not cause any significant drop in IL-1RA secretion
same,production of PGE2 and PGF2α,[1]; [2],reduced production of both PGE2 and PGF2α down to basal levels
same,PGE2 production,"[1]; THP1, UBM hydrogel 0.5 mg/mL 48 hours, inhibitor pre-treatment 1 hour",reduced PGE2 production to baseline levels
same,PGE2 production,brain derived microglia,reduced PGE2 production to baseline levels
same,myogenesis metrics,"C2C12 murine myoblasts; Aspirin 200 μM co-administered with UBM 0.5 mg/mL, 48 hours",reduced these myogenesis metrics down to control levels
same,reduction in fusion index,"C2C12 murine myoblasts; Aspirin with UBM, THP1/C2C12 co culture",92%
